From ChEMBL document CHEMBL1129716, “Indolizidine derivatives as potential substance P antagonists” (Bioorg Med Chem Lett, 1996)

Biological target: Substance-P receptor (Homo sapiens, UniProt P25103)
Test: Binding affinity was carried out with NK 1 receptors from U-373MG human astrocytoma cell line
Assay type: cell-based
Conditions: u-373mg atcc

Substance-P receptor, sequence (P25103 whole entry): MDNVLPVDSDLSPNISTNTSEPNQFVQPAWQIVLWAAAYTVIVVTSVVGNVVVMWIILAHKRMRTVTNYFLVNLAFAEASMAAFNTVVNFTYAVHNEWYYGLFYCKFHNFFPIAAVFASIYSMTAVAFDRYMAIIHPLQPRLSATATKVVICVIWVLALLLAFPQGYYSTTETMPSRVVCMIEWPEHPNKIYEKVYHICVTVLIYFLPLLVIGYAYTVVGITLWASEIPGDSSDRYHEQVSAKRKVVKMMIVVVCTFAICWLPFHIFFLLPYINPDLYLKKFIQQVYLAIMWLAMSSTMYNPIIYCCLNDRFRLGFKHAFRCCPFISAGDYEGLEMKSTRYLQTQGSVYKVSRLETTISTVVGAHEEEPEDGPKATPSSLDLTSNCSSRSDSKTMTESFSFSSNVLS

| Log Ki | Compound |
| --- | --- |
| < -7 | C=C1CN2CCC[C@H](NCc3ccccc3OC)[C@@]2(c2ccccc2)C1 |
| < -7 | COc1ccccc1CN[C@H]1CCCN2CCC[C@]12c1ccccc1 |
